According to PMC9857510, “Identification of Immune-Active Peptides in Casein Hydrolysates and Its Transport Mechanism on a Caco-2 Monolayer” (Foods, 2023):
Where two headings read alike, the source gives them in different places. Residues, ends and D or L forms follow the SMILES beside them. No end group written: not given here.

How the values were obtained:
Caco-2 cell monolayer [1] = test: Absorption mechanism: phenylarsine oxide (endocytosis) and sodium deoxycholate (bypass transport) pre-incubation; assay type: in vitro ADME, human
Protocol: (§1) After 0.5 mL of 10 mM Gly-Pro, 0.1 mM sodium deoxycholate and 0.025 mM phenylarsine oxide were added to different wells on the AP side, and the Transwell plates were incubated in a CO2 incubator for 30 min and followed by the removal of these compounds. The peptides were then added to the AP side, and Hank’s Balanced Salt Solution (HBSS) buffer was added to the BL side, and samples were collected after 2 h.

Caco-2 cell monolayer [2] = test system: Caco-2 cell monolayer
Protocol: (§3) Reverse phase high-performance liquid chromatography (RP-HPLC) was used to analyze the composition of peptides passed through the Caco-2 cell membrane. The elution parameters were as follows: the mobile phase B was ultra-pure water containing 0.1% Trifluoroacetic acid (TFA), and mobile phase A contained acetonitrile supplemented with 0.1% TFA. Adopting a gradient elution method, in detail, at 0.01 min, mobile phase A was 5%; at 25 min, mobile phase A was 70%. The absorbance of RP-HPLC was detected at 220 nm. The peak yields of the five electroactive peptides at the concentrations of 0.5 mM, 0.2 mM, 0.1 mM, 0.05 mM, and 0.025 mM were detected. The concentration was set as the abscissa and the peak area was set as the ordinate to draw the standard curves of the different peptide segments.
(§4) Caco-2 cells were maintained in an incubator at 37 °C, with 5% CO2 and relative humidity of 90% until the number of cells accounted for 80–90% of confluency [19]. After that, the medium was added to obtain a cellular suspension with 4 × 10^5 cells/mL, which was seeded on a 12-well Transwell plate added to the AP side of the 0.5 mL cell suspension, and the Basal lateral (BL) side by adding 1.5 mL of cell culture medium after one day after the exchange, Then, the fluid was changed every other day for 6 days, and the fluid was changed every day until the culture was completed. […] The main detection indicators were: (1) cell morphology observation; (2) the cell membrane compactness using fluorescent yellow test; (3) the detection of single-cell membrane resistance [20]; (4) alkaline phosphatase activities at the top and the basal side of the cell membrane were detected respectively to preliminarily determine the polarity of it.
(§5) The Papp formula of fluorescence is as follows:(2) Papp=dQ/dt/A×C0 where: C0—Initial concentration of fluorescent yellow (mg/mL); A—Membrane surface area (cm^2); dQ/dt—Transport of fluorescent yellow per unit time; Papp—Apparent permeability coefficient.

in vitro = details: human, Caco-2, pH 7.4
Protocol: as §3, §4, §5

Caco-2 cell monolayer [3] = test: Integrity of peptides after passing the Caco-2 monolayer (RP-HPLC, LC-MS/MS); assay type: in vitro ADME, human; details: for integrity of the peptide after passing through the Caco-2 cell membrane: RP-HPLC and LC/MS of BL-side liquid; for Concentration (ppm): peptide and fragments found by LC-MS in the liquid that passed the membrane, parents RYPLGYL, KHPIK, FFSDK
Caco-2 cell monolayer [4] = test: Transport assay on Caco-2 cell monolayer (Transwell, RP-HPLC quantification)
Protocol: as §3, §4, §5

Caco-2 cell monolayer [5] = test: Peptide efflux: sodium azide pre-incubation (ATP production); assay type: in vitro ADME, human; details: 10 mM sodium azide, AP-BL, 2 h, vs blank
Protocol: (§2) In total, 0.5 mL of 0.05 mM MK-571 sodium salt, 0.1 mM verapamil, and 10 mM sodium azide were added to the AP side hole of the Transwell plate and incubated in a CO2 incubator for 30 min. After this incubation, the compounds were removed, the peptide was added to the AP side, and HBSS buffer was added to the BL side for 2 h.

[6] = target: T1, Peptide transporter 1 (Pep T1) (Homo sapiens, UniProt P46059); test: Absorption mechanism: Gly-Pro pre-incubation (carrier transport); assay type: in vitro ADME; details: 10 mM Gly-Pro, 30 min pre-incubation, 2 h transport, vs blank
T1 construct: endogenous in cells; host or cells: Caco-2
T1 sequence (P46059 1-708): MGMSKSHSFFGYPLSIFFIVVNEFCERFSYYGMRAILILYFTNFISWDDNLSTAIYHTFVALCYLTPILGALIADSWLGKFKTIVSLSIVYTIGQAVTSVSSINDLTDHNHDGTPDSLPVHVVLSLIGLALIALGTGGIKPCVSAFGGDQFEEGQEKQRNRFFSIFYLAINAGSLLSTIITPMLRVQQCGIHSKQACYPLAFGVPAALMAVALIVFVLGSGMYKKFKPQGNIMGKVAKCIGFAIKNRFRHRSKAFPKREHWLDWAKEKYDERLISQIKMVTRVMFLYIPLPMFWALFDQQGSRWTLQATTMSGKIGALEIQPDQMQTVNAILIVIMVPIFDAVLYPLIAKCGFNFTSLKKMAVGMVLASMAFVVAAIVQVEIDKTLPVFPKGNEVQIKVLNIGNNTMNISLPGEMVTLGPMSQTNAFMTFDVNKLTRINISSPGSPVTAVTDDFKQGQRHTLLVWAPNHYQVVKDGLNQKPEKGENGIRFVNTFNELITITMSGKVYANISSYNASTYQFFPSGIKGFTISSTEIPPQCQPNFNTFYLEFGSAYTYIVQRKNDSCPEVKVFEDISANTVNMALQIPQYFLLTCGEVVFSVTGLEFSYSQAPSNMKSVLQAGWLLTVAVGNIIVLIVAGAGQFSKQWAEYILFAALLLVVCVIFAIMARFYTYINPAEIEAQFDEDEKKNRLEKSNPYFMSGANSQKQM
Protocol: as §1

MRP2 = target: T2, MRP2 (Homo sapiens, UniProt Q92887); test: Peptide efflux: MK-571 sodium salt pre-incubation; assay type: in vitro ADME; details: 0.05 mM MK-571 sodium salt, AP-BL, 2 h, vs blank
T2 construct: Multidrug resistance protein (MRP) and P-glycoprotein in Caco-2 cells are energy-dependent efflux transporters; endogenous in cells; host or cells: Caco-2
T2 sequence (Q92887 whole entry): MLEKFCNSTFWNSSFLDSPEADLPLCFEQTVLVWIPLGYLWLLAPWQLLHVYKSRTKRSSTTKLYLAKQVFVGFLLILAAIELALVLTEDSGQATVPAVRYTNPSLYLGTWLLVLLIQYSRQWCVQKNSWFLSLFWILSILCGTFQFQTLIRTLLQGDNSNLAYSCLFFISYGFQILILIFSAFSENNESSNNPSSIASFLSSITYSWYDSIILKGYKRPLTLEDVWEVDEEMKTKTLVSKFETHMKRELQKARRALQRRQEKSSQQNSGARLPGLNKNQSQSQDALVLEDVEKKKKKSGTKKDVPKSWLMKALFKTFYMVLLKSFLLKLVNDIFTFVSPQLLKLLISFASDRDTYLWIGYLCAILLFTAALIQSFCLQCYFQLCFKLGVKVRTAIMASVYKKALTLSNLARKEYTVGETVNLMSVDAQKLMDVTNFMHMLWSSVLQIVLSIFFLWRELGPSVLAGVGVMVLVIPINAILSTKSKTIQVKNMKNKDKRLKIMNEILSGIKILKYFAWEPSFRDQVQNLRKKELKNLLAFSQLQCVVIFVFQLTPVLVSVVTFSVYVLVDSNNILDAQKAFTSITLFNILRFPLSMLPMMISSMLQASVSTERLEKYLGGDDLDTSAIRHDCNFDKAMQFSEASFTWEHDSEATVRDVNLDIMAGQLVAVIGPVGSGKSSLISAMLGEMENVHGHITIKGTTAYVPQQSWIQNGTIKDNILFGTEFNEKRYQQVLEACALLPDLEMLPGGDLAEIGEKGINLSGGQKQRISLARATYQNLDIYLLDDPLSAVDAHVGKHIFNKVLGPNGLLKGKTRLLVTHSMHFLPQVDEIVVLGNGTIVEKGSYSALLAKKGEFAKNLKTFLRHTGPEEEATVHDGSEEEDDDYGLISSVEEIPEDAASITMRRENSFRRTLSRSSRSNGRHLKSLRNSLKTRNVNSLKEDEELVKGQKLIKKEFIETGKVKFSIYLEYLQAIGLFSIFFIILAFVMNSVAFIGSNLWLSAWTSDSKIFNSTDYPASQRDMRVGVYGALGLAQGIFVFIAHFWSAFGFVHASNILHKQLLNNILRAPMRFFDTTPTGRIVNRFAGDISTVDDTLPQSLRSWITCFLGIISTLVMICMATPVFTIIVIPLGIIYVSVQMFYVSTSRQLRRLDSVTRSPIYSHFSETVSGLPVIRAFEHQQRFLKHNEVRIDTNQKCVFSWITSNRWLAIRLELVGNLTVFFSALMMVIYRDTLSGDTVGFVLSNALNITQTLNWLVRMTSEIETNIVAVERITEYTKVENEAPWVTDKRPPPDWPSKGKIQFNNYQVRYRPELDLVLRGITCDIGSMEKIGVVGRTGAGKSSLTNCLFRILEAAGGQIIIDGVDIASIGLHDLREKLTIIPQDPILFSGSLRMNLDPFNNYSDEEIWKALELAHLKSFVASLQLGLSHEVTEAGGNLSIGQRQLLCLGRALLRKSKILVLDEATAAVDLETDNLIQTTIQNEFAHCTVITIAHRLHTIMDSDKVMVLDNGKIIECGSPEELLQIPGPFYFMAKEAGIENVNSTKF
Protocol: as §2

P-glycoprotein = target: T3, P-glycoprotein (Homo sapiens, UniProt P08183); test: Peptide efflux: verapamil pre-incubation; assay type: in vitro ADME; details: 0.1 mM verapamil, AP-BL, 2 h, vs blank
T3 construct: Multidrug resistance protein (MRP) and P-glycoprotein in Caco-2 cells are energy-dependent efflux transporters; endogenous in cells; host or cells: Caco-2
T3 sequence (P08183 whole entry): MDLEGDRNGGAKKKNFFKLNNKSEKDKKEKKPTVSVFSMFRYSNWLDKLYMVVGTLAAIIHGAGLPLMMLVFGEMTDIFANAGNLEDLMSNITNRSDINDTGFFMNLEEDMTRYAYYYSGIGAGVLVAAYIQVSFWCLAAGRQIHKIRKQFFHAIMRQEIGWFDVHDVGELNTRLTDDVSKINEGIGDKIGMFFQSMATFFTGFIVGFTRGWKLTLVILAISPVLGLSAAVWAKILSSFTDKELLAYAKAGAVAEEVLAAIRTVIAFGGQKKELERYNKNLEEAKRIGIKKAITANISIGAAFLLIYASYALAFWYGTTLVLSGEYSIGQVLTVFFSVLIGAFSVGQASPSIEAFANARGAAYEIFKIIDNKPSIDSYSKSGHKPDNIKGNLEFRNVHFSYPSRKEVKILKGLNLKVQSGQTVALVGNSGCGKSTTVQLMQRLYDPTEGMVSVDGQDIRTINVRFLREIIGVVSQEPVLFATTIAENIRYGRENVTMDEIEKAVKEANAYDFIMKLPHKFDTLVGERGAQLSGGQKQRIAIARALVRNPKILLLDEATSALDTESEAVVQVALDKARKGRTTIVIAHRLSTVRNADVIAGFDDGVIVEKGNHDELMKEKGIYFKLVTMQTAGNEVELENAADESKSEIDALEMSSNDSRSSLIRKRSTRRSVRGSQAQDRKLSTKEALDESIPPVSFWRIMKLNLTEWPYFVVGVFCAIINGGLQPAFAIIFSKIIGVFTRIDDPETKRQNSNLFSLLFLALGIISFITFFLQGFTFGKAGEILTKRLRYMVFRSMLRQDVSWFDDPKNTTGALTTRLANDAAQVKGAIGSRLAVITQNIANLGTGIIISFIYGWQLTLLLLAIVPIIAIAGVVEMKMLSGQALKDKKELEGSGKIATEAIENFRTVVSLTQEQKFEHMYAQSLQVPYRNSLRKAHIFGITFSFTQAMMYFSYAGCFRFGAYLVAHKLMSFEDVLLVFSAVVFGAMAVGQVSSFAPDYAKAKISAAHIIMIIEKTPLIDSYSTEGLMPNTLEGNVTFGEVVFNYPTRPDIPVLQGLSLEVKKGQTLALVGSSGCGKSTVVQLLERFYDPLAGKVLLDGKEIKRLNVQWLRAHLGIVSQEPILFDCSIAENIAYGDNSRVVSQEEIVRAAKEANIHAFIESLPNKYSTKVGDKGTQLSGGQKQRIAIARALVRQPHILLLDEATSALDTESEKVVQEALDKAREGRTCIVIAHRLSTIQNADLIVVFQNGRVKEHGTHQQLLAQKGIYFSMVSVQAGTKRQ
Protocol: as §2

| Compound | main transport mechanism in intestinal epithelial cells (Caco-2 cell monolayer [1]) | Papp A→B at 2 h, 5 mM (in vitro) | integrity of the peptide after passing through the Caco-2 cell membrane (Caco-2 cell monolayer [3]) | Concentration (ppm) (Caco-2 cell monolayer [3]) | further results |
| --- | --- | --- | --- | --- | --- |
| KHPIK [KHPIK, Lys-His-Pro-Ile- Lys] | bypass diffusion | 0.322 ×10⁻⁶ cm/s | Most of the KHPIK and FFSDK were hydrolyzed into KHP and FFS | 2.59 ppm | amount across the membrane versus time (Caco-2 cell monolayer [2]; Caco-2): increased slowly; amount transported versus time (Caco-2 cell monolayer [2]; Caco-2): increased rapidly; transport quantity BL-AP side compared with AP-BL side (Caco-2 cell monolayer [2]; Caco-2): significantly lower; transmembrane transport capacity on the BL side (Caco-2 cell monolayer [2]; Caco-2, pH 6): 23.14 µM; transmembrane transport capacity on the BL side (Caco-2 cell monolayer [2]; Caco-2, pH 7): greater than 30.01 μM; transmembrane transport capacity on the BL side (Caco-2 cell monolayer [2]; Caco-2, pH 7.4): 44.35 µM |
| RYPLGYL [RYPLGYL, Arg-Tyr-Pro-Leu-Gly-Tyr-Leu] | bypass diffusion | 0.161 ×10⁻⁶ cm/s | resistant to the enzymatic hydrolysis of intestinal epithelial cells | 10.74 ppm |  |
| NNC(=O)NN1C(=O)c2cc(S(=O)(=O)[O-])cc3c(N)c(S(=O)(=O)[O-])cc(c23)C1=O.[Li+].[Li+] [fluorescence yellow] |  |  |  |  | Papp of fluorescence yellow (Caco-2 cell monolayer [4]; Caco-2 monolayer density check): 0.607 ×10⁻⁶ cm/s; increase of transmittance (Caco-2 cell monolayer [4]; experimental group (Caco-2 monolayer), from 0.5 h to 2.5 h): 1.6% |
| N[C@@H](Cc1ccc(O)cc1)C(=O)NCC(=O)NCC(=O)O [YGG, Tyr-Gly-Gly] (H-Tyr-Gly-Gly-OH; N-terminus and C-terminus assumed) |  |  |  |  | effect of sodium azide on concentration on the BL side (Caco-2 cell monolayer [5]): slightly higher; main transport mechanism in intestinal epithelial cells (Caco-2 cell monolayer [1]; Caco-2 monolayer): bypass diffusion; effect of Gly-Pro on transport to the BL side [6]: no significant differences; effect of MK-571 sodium salt on transmembrane transport (MRP2): no significant differences; effect of verapamil on transmembrane transport (P-glycoprotein): significantly promote |
| FFSDK [FFSDK, Phe-Phe-Ser-Asp-Lys] | bypass diffusion | 0.491 ×10⁻⁶ cm/s | Most of the KHPIK and FFSDK were hydrolyzed into KHP and FFS | 2.59 ppm |  |
| KHPIKH [KHPIKH, Lys-His-Pro-Ile-Lys-His] | bypass diffusion | 0.26 ×10⁻⁶ cm/s |  |  |  |
